# Measured values as given in US8481576B2 (Abbott GmbH & Co. KG, priority 2004, dated 2013).
# Where a name gives a salt, the structure may show the parent alone.
# Target: T1, h5-HT5A receptor (Homo sapiens, UniProt P47898)
# T1 construct: expressed in transfected cells; host or cells: HEK293
# Assay: [3H]5-CT binding assay h5-HT5A
# Details: membranes from HEK293 cells expressing h5-HT5A, 2.5 nM [3H]5-CT; read-out: Binding affinity 5-HT5A (Ki)
# Protocol: 1. [^3H]5-CT binding assay h5-HT5A
# Membranes from HEK293-cells, which permanently express the h5-HT5A receptor gene, were incubated in 100 mM Tris-HCl-buffer (pH 7.7), containing 1 mM EDTA in the presence of 2.5 nM [^3H]5-CT (600 μl total volume). The total binding is defined as the binding which is observed when the membranes are incubated alone in the presence of the radioligand. The inhibition induced by the compound is determined by incubation of cell membranes in the presence of the radioligand, and of different concentrations of the compound of interest. Unspecific binding is defined by the binding of [^3H]5-CT, which is obtained by incubation of the membranes as for the total binding but in the presence of 10 μM methiothepine. Following an incubation of 75 minutes at 30° C. the membrane suspension is filtered through GF/B-filters, wrapped in 0.03% PEI, wherein a Skatron® harvest system is used. The radioactivity retained in the filter is quantified by liquid scintillation counting.
# In both assays, different concentrations of the test substances are used, and the Ki or the IC50 values are determined.
# T1 sequence (P47898 whole entry): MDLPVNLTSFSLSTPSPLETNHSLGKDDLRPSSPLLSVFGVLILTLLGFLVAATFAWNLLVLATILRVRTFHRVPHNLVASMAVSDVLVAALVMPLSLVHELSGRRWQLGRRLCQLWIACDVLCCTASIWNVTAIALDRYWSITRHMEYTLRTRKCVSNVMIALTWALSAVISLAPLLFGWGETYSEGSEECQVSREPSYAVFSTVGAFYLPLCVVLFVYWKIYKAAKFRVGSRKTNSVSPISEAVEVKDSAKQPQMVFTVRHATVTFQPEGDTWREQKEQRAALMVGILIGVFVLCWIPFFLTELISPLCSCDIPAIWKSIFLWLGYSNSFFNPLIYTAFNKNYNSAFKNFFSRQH
row,SMILES,Ki [nM]
1,"COc1ccccc1CNC(=N)Nc1nc(C(F)(F)F)cs1 [Example 52, N-(2-methoxybenzyl)-N′-[4-(trifluoromethyl)-1,3-thiazole-2-yl]guanidine (2E)-But-2-endioate]",> 500
2,"COc1cccc(OC)c1CNC(=N)Nc1nc(C(F)(F)F)cs1 [Example 53, N-(2,6-dimethoxybenzyl)-N′-[4-(trifluoromethyl)-1,3-thiazole-2-yl]guanidine]",50 to 500
3,"CCN(CC)c1ccc(-c2csc(NC(=N)NCc3c(OC)cccc3OC)n2)cc1 [Example 62, N-{4-[4-(diethylamino)phenyl]-1,3-thiazole-2-yl}-N′-(2,6-dimethoxybenzyl)guanidine]",50 to 500
4,"COc1ccccc1-c1csc(NC(=N)NCc2c(OC)cccc2OC)n1 [Example 75, N-(2,6-dimethoxybenzyl)-N′-[4-(2-methoxyphenyl)-1,3-thiazole-2-yl]guanidine hydrobromide]",< 50
5,"COc1cccc(OC)c1CNC(=N)Nc1nc(C(c2ccccc2)c2ccccc2)cs1 [Example 76, N-(2,6-dimethoxybenzyl)-N′-[4-(diphenylmethyl)-1,3-thiazole-2-yl]guanidine hydrobromide]",< 50
6,"COc1cccc(OC)c1CNC(=N)Nc1nc(-c2ccc(Cl)s2)cs1 [Example 77, N-[4-(5-chloro-2-thienyl)-1,3-thiazole-2-yl]-N′-(2,6-dimethoxybenzyl)guanidine hydrobromide]",< 50
7,"COc1cccc(OC)c1CNC(=N)Nc1nc2c(s1)Cc1ccccc1-2 [Example 80, N-(2,6-dimethoxybenzyl)-N′-8H-indeno[1,2-d][1,3]thiazole-2-ylguanidine hydrobromide]",< 50
8,"COc1cccc(OC)c1CNC(=N)Nc1nc(-c2ccc(S(C)(=O)=O)cc2)cs1 [Example 82, N-(2,6-dimethoxybenzyl)-N′-{4-[4-(methylsulfonyl)phenyl]-1,3-thiazole-2-yl}guanidine hydrobromide]",50 to 500
9,"COc1cccc(OC)c1CNC(=N)Nc1nc(-c2cc(-c3ccccc3)no2)cs1 [Example 83, N-(2,6-dimethoxybenzyl)-N′-[4-(3-phenylisoxazole-5-yl)-1,3-thiazole-2-yl]guanidine hydrobromide]",< 50
10,"COc1cccc(OC)c1CNC(=N)Nc1nc(-c2ccccc2C(F)(F)F)cs1 [Example 84, N-(2,6-dimethoxybenzyl)-N′-{4-[2-(trifluoromethyl)phenyl]-1,3-thiazole-2-yl}guanidine hydrobromide]",< 50
11,"COc1cccc(OC)c1CNC(=N)Nc1nc(C23CC4CC(CC(C4)C2)C3)cs1 [Example 85, N-[4-(1-adamantyl)-1,3-thiazole-2-yl]-N′-(2,6-dimethoxybenzyl)guanidine hydrobromide]",< 50
12,"COc1cccc(F)c1CNC(=N)Nc1nc(C)cs1 [Example 86, N-(2-fluoro-6-methoxybenzyl)-N′-(4-methyl-1,3-thiazole-2-yl)guanidine]",< 50
13,"COc1cccc(OC)c1CNC(=N)Nc1nc(-c2ccc(F)c(F)c2)cs1 [Example 87, N-[4-(3,4-difluorophenyl)-1,3-thiazole-2-yl]-N′-(2,6-dimethoxybenzyl)guanidine hydrobromide]",< 50
14,"COc1cccc(OC)c1CNC(=N)Nc1nc(-c2nc3ccccc3s2)cs1 [Example 88, N-[4-(1,3-benzothiazole-2-yl)-1,3-thiazole-2-yl]-N′-(2,6-dimethoxybenzyl)guanidine hydrobromide]",< 50
15,"COc1cccc(OC)c1CNC(=N)Nc1nc(-c2cccc(Cl)c2)cs1 [Example 89, N-[4-(3-chlorophenyl)-1,3-thiazole-2-yl]-N′-(2,6-dimethoxybenzyl)guanidine hydrobromide]",< 50
16,"COc1cccc(OC)c1CNC(=N)Nc1nc(-c2cccs2)cs1 [Example 90, N-(2,6-dimethoxybenzyl)-N′-[4-(2-thienyl)-1,3-thiazole-2-yl]guanidine hydrobromide]",< 50
17,"COc1cccc(OC)c1CNC(=N)Nc1nc(-c2ccc(F)cc2F)cs1 [Example 91, N-[4-(2,4-difluorophenyl)-1,3-thiazole-2-yl]-N′-(2,6-dimethoxybenzyl)guanidine hydrobromide]",< 50
18,"COc1ccccc1CNC(=N)Nc1nc2ccccc2n1C [Example 92, N-(2-methoxybenzyl)-N′-(1-methyl-1H-benzimidazole-2-yl)guanidine]",50 to 500
19,"COc1ccccc1CNC(=N)Nc1nc2ccccc2[nH]1 [Example 93, N-1H-benzimidazole-2-yl-N′-(2-methoxybenzyl)guanidine acetate]",< 50

# Now from value to compound:
row,Ki [nM],SMILES
1,< 50,"COc1ccccc1CNC(=N)Nc1ncc(C)s1 [Example 54, N-(2-methoxybenzyl)-N′-(5-methyl-1,3-thiazole-2-yl)guanidine (2E)-But-2-endioate]"
2,< 50,"COc1cccc(OC)c1CNC(=N)Nc1ncc(C)s1 [Example 55, N-(2,6-dimethoxybenzyl)-N′-(5-methyl-1,3-thiazole-2-yl)guanidine]"
3,< 50,"COc1cccc(OC)c1CNC(=N)Nc1nc(-c2ccc(F)cc2)cs1 [Example 56, N-(2,6-dimethoxybenzyl)-N′-[4-(4-fluorophenyl)-1,3-thiazole-2-yl]guanidine]"
4,< 50,"COc1cccc(OC)c1CNC(=N)Nc1nc(-c2ccc(C)cc2)cs1 [Example 57, N-(2,6-dimethoxybenzyl)-N′-[4-(4-methylphenyl)-1,3-thiazole-2-yl]guanidine]"
5,< 50,"COc1ccc(-c2csc(NC(=N)NCc3c(OC)cccc3OC)n2)cc1 [Example 58, N-(2,6-dimethoxybenzyl)-N′-[4-(4-methoxyphenyl)-1,3-thiazole-2-yl]guanidine]"
6,< 50,"COc1cccc(F)c1CNC(=N)Nc1nc(-c2ccccc2)cs1 [Example 59, N-(2-fluoro-6-methoxybenzyl)-N′-(4-phenyl-1,3-thiazole-2-yl)guanidine]"
7,< 50,"COc1cccc(OC)c1CNC(=N)Nc1nc(-c2ccc(C#N)cc2)cs1 [Example 60, N-[4-(4-cyanophenyl)-1,3-thiazole-2-yl]-N′-(2,6-dimethoxybenzyl)guanidine]"
8,< 50,"COc1cccc(-c2csc(NC(=N)NCc3c(OC)cccc3OC)n2)c1 [Example 61, N-(2,6-dimethoxybenzyl)-N′-[4-(3-methoxyphenyl)-1,3-thiazole-2-yl]guanidine]"
9,< 50,"COc1cccc(OC)c1CNC(=N)Nc1nc(-c2ccc(N3CCCC3)cc2)cs1 [Example 63, N-(2,6-dimethoxybenzyl)-N′-[4-(4-pyrrolidine-1-ylphenyl)-1,3-thiazole-2-yl]guanidine hydrobromide]"
10,< 50,"COc1cccc(OC)c1CNC(=N)Nc1nc(-c2ccc(OC(F)(F)F)cc2)cs1 [Example 64, N-(2,6-dimethoxybenzyl)-N′-{4-[4-(trifluoromethoxy)phenyl]-1,3-thiazole-2-yl}guanidine hydrobromide]"
11,< 50,"COc1cccc(OC)c1CNC(=N)Nc1nc(-c2ccc(N3CCOCC3)cc2)cs1 [Example 65, N-(2,6-dimethoxybenzyl)-N′-[4-(4-morpholine-4-ylphenyl)-1,3-thiazole-2-yl]guanidine hydrobromide]"
12,< 50,"COc1cccc(OC)c1CNC(=N)Nc1ncc(-c2ccccc2)s1 [Example 66, N-(2,6-dimethoxybenzyl)-M-(5-phenyl-1,3-thiazole-2-yl)guanidine hydrobromide]"
13,< 50,"COc1cccc(OC)c1CNC(=N)Nc1nc(-c2cc3ccccc3o2)cs1 [Example 67, N-[4-(1-benzofuran-2-yl)-1,3-thiazole-2-yl]-N′-(2,6-dimethoxybenzyl)guanidine hydrobromide]"
14,< 50,"COc1cccc(OC)c1CNC(=N)Nc1nc(-c2cc(F)cc(F)c2)cs1 [Example 68, N-[4-(3,5-difluorophenyl)-1,3-thiazole-2-yl]-N′-(2,6-dimethoxybenzyl)guanidine hydrobromide]"
15,< 50,"COc1cccc(OC)c1CNC(=N)Nc1nc(-c2ccc3c(c2)OCO3)cs1 [Example 69, N-[4-(1,3-benzodioxol-5-yl)-1,3-thiazole-2-yl]-N′-(2,6-dimethoxybenzyl)guanidine hydrobromide]"
16,< 50,"COc1cccc(OC)c1CNC(=N)Nc1nc(-c2ccccc2F)cs1 [Example 70, N-(2,6-dimethoxybenzyl)-N′-[4-(2-fluorophenyl)-1,3-thiazole-2-yl]guanidine hydrobromide]"
17,< 50,"COc1cccc(OC)c1CNC(=N)Nc1nc(-c2ccc(NS(C)(=O)=O)cc2)cs1 [Example 71, N-[4-(2-{[[(2,6-dimethoxybenzyl)amino](imino)methyl]amino}-1,3-thiazole-4-yl)phenyl]methanesulfonamide hydrobromide]"
18,< 50,"COc1cccc(OC)c1CNC(=N)Nc1nc(-c2ccsc2)cs1 [Example 72, N-(2,6-dimethoxybenzyl)-N′-[4-(3-thienyl)-1,3-thiazole-2-yl]guanidine acetate]"
19,< 50,"COc1cccc(OC)c1CNC(=N)Nc1nc(-c2cccc(F)c2)cs1 [Example 73, N-(2,6-dimethoxybenzyl)-N′-[4-(3-fluorophenyl)-1,3-thiazole-2-yl]guanidine hydrobromide]"
20,< 50,"COc1cccc(OC)c1CNC(=N)Nc1nc(-c2ccc(-c3ccccc3)cc2)cs1 [Example 74, N-(4-biphenyl-4-yl-1,3-thiazole-2-yl)-N′-(2,6-dimethoxybenzyl)guanidine hydrobromide]"
